Laboratory results reported in PubChem BioAssay (NCI).
Where “and” joins values, the source holds several entries; their conditions need not be identical. Equal entries are not always repeated.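 Grown in 96-well plates, cells were treated for 48 hours with each compound at five concentrations. Insufficient inhibition: endpoint recorded as highest concentration tested. GI50 is the concentration that inhibits growth by half. TGI marks complete inhibition of growth.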

What was measured:
Assay in all cases: NCI tumour cell line growth inhibition, 48 h
OVCAR-5 ovarian = tested on: OVCAR-5 ovarian
OVCAR-3 ovarian = tested on: OVCAR-3 ovarian
NCI-H23 lung = tested on: NCI-H23 lung
U251 CNS = tested on: U251 CNS
HOP-92 NSCLC = tested on: HOP-92 NSCLC
SR leukemia = tested on: SR leukemia
SF-539 CNS = tested on: SF-539 CNS
HT29 colon = tested on: HT29 colon
M14 melanoma = tested on: M14 melanoma
OVCAR-4 ovarian = tested on: OVCAR-4 ovarian

Row | SMILES | TGI (OVCAR-5 ovarian) | TGI (OVCAR-3 ovarian) | TGI (NCI-H23 lung) | TGI (U251 CNS) | TGI (HOP-92 NSCLC) | TGI (SR leukemia) | TGI (SF-539 CNS) | TGI (HT29 colon) | TGI (M14 melanoma) | TGI (OVCAR-4 ovarian) | GI50 (OVCAR-5 ovarian) [µM] | GI50 (OVCAR-3 ovarian) [µM] | GI50 (NCI-H23 lung) [µM] | GI50 (U251 CNS) [µM] | GI50 (HOP-92 NSCLC) [µM] | GI50 (SF-539 CNS) [µM] | GI50 (HT29 colon) [µM] | GI50 (SR leukemia) [µM] | GI50 (M14 melanoma) [µM] | GI50 (OVCAR-4 ovarian) [µM]
1 | CSc1nc(SC)c2c(C)cn(C3OC(C)C(O)C(O)C3O)c2n1 (stereo not given) | > 100 µM | > 100 µM | > 100 µM | > 100 µM | 83.4 µM | > 100 µM | > 100 µM | > 100 µM | > 100 µM | > 100 µM | – | – | – | – | – | – | – | – | – | –
2 | COc1ccc(/C=C/C(=O)c2ccccc2)cc1OC | 33.5 µM and 44.1 µM | 25.3 µM and 26.8 µM | 50.1 µM and 41.3 µM | 21.9 µM and 18.1 µM | 41 µM and 79.4 µM | > 100 µM and 58.3 µM | 25.7 µM and 36.1 µM | 22.2 µM and 16.2 µM | 30 µM and 29.6 µM | 36.6 µM and 33.3 µM | 21.4 | 7.38 | 15.8 | 5.81 | 26.3 | 16.4 | 3.86 | – | – | –
3 | O=C(O)c1c[nH]c2c(ccc3[nH]cc(C(=O)O)c(=O)c32)c1=O | > 100 µM | > 100 µM | > 100 µM | > 100 µM | > 100 µM | > 100 µM | > 100 µM | > 100 µM | > 100 µM | > 100 µM | – | – | – | – | – | – | – | – | – | –
4 | NC(CSC1(c2ccc(Cl)cc2)c2ccccc2-c2ccccc21)C(=O)O (stereo not given) | 79.5 µM | > 100 µM | 41.1 µM | 29.6 µM | 47.4 µM | 46.9 µM | 48.5 µM | > 100 µM | 68.4 µM | > 100 µM | – | – | – | – | – | – | – | – | – | –
5 | O=C1Nc2c(ccc(Cl)c2Cl)/C1=C\c1cc(C(F)(F)F)cc(C(F)(F)F)c1 | 11.4 µM | 4.27 µM | 21.6 µM | 3.22 µM | 7.42 µM | 1.9 µM | 13.8 µM | 6.68 µM | 11.3 µM | 7.66 µM | 4.26 | 1.1 | 4.95 | 1.15 | 1.44 | 6.95 | 1.95 | 0.392 | 5.06 | 1.81
6 | CS(=O)(=O)c1ccc(-c2cnc(NCc3ccco3)n3cnnc23)cc1 | > 100 µM | > 100 µM | > 100 µM | > 100 µM | > 100 µM | > 100 µM | > 100 µM | > 100 µM | > 100 µM | > 100 µM | > 100 | > 100 | > 100 | > 100 | 21.4 | > 100 | 28.8 | > 100 | 27 | > 100
7 | ClCc1ccc(-c2ccc(Cn3cnc4c(Cl)ncnc43)cc2)cc1 | 6.01 µM | 3.8 µM | 3.65 µM | 3.95 µM | 25.2 µM | > 100 µM | 3.14 µM | – | 11.8 µM | 4.28 µM | 2.31 | 1.83 | 1.84 | 1.81 | 2.02 | 1.52 | – | 2.51 | 2.69 | 1.46
